The test system of one test is BPE cells. The experiment in a line: in vitro growth inhibition by estrogen antagonist, BPE cells. The class given is cell-based, human. To be noted: data not shown. The text has this:
(§1) Expression of CK18 and BER-Ep4 both confirm the adenocarcinoma features and exclude a squamous tumor. E-cadherin excludes a mesenchymal tumor. BPLER xenografts express progesterone receptor, which is consistent with the notion that BPLER xenografts are hormone-responsive. This was confirmed by experiments in which estrogen-progesterone treatment of mice increased subject tumor size approximately two-fold compared to untreated mice. […] Similar tumor xenografts from cells cultured in the MEGM media was negative for progesterone receptor expression and the in vitro growth inhibition of the cells with ICI 182,780 was less than 20% (data not shown).

The next test relates to BPEC cells. The experiment in a line: in vitro growth inhibition by estrogen antagonist, BPEC cells. The class given is cell-based, human. To be noted: data not shown.
Description: as §1

The next test has as its system BPLE cells. The experiment in a line: in vitro growth inhibition by estrogen antagonist, BPLE cells. The format is cell-based, human. To be noted: data not shown.
Description: as §1

The test system of test [1] is cells cultured in the MEGM media. In words: in vitro growth inhibition by estrogen antagonist, cells cultured in the MEGM media. The class given is cell-based, human. The note with it: data not shown.
Description: as §1

For a further test, the system named is BPLER xenograft tumors. The experiment in a line: hormone responsiveness of BPLER xenograft tumors in mice. To be noted: estrogen treated animals. The format is in vivo. An excerpt: In one respect, the histology of tumors arising from BPLER is very similar, if not identical to human ductal breast carcinoma. There is prominent luminal marker CK18 expression in BPLER cells and tumors. There is also prominent expression of E-cadherin, a marker indicating polarization of cells. Morphology wise, BPLER xenografts form glandular structures similar to those seen in human tumors. BPLER xenografts into mammary fat pads are invasive into adjacent skeletal muscle, and cause a desmoplastic reaction. BPLER xenografts also express progesterone receptors based on immunohistological staining of xenograft tumor samples. In addition, BPLER tumor sizes respond to estrogen treatment, in that xenograft tumors weighed about 70-100% more in estrogen treated animals than in control animals. BPLER tumors spread within the breast tissue of mice, and the multifocal growth is consistent with lymphovascular invasion and spread of tumors. […]
Analysis of tumorigenicity and metastasis: Single-cell suspensions were prepared in a WIT:Matrigel (1:1) mixture and injected in 25 μL (orthotopic) and 100 μl (subcutaneous) volumes. […] Metastasis to lungs and other tissues was analyzed initially under a dissecting microscope (Leica) in fresh tissues, followed by microscopic examination of hematoxylin-eosin and immunostained sections of formalin-fixed and paraffin-embedded tissues. […]

`C[C@]12CC[C@@H]3c4ccc(O)cc4C[C@@H](CCCCCCCCC[S+]([O-])CCCC(F)(F)C(F)(F)F)[C@H]3[C@@H]1CC[C@@H]2O` (some centres unmarked) [ICI 182,780]: the growth inhibition in the test on BPE cells, in the test with BPEC cells and with BPLE cells was more than 80% throughout. For the same molecule, the “in vitro growth inhibition” value in test [1] was “less than 20%”.
Take estrogen: in the test with BPLER xenograft tumors, the “xenograft tumor weight increase in treated animals vs control animals” value is listed as 70-100%.

Source of the values: patent US11530385B2, “Hormone responsive tissue culture system and uses thereof” (Whitehead Institute for Biomedical Research, priority 2007, dated 2022).
